Test results reported in ChEMBL document CHEMBL5108042, “Design and synthesis of eugenol/isoeugenol glycoconjugates and other analogues as antifungal agents against Aspergillus fumigatus” (RSC Med Chem, 2022).
Values after ≈ are worked out from the molar mass of the structure shown. Active and inactive are the calls of the source. The calls are words filed in the database; no cut-off is given here.

What was measured:
Aspergillus fumigatus [1] = experiment: Antifungal activity against Aspergillus fumigatus ATCC 46645 assessed as inhibition of conidial and mycelial growth incubated for 5 days by CLSI protocol based microbroth dilution method; format: functional; conditions: ATCC 46645, 120 h, time 5 day
Aspergillus fumigatus [2] = experiment: Antifungal activity against Aspergillus fumigatus ATCC 46645 assessed as inhibition of fungal growth incubated for 5 days by CLSI protocol based microbroth dilution method; format: functional, organism-based; conditions: ATCC 46645, 120 h
Aspergillus fumigatus [3] = experiment: Antifungal activity against Aspergillus fumigatus ATCC 46645 assessed as decrease in number of conidia at IC50 concentration by scanning electron microscopic analysis; format: functional, organism-based
Aspergillus fumigatus [4] = experiment: Antifungal activity against Aspergillus fumigatus ATCC 46645 assessed as smooth conidial surface with absence of protrusions at IC50 concentration by scanning electron microscopic analysis; format: functional, organism-based
Aspergillus fumigatus [5] = experiment: Antifungal activity against Aspergillus fumigatus ATCC 46645 assessed as absence of melanin layer at IC50 concentration by transmission electron microscopic analysis; format: functional, organism-based
Cell membrane = experiment: Induction of cell membrane disruption in Aspergillus fumigatus ATCC 46645 assessed as accumulation of cytoplasmic content at IC50 concentration by transmission electron microscopic analysis; format: subcellular
Aspergillus fumigatus [6] = experiment: Antifungal activity against Aspergillus fumigatus ATCC 46645 assessed as decrease in DHN-melanin content by measuring absorption spectra at optical density 275 nm at IC50 concentration incubated for 5 days by UV-vis spectrophotometric analysis; format: functional; conditions: time 5 day
Aspergillus fumigatus [7] = experiment: Antifungal activity against Aspergillus fumigatus ATCC 46645 assessed as decrease in DHN-melanin content at IC50 concentration incubated for 5 days by UV-vis spectrophotometric analysis; format: functional, organism-based; conditions: time 5.0 day
Aspergillus fumigatus [8] = experiment: Antibiofilm activity against Aspergillus fumigatus ATCC 46645 assessed as absence of ECM on hyphae at 69.53 to 86.92 uM; format: functional, organism-based; conditions: dose 69.53-86.92 µM
Aspergillus fumigatus [9] = experiment: Antibiofilm activity against Aspergillus fumigatus ATCC 46645 at 69.53 to 86.92 uM incubated for 24 hrs by MTT assay; format: functional, organism-based; conditions: dose 69.53-86.92 µM
[10] = Selectivity index, ratio of CC50 for cytotoxicity against human L-132 cells assessed as inhibition of cell growth to IC50 for antifungal activity against Aspergillus fumigatus ATCC 46645 assessed as inhibition of fungal growth; format: toxicity, cell-based; conditions: read-out: Ratio IC50
[11] = Cytotoxicity against human L132 cells assessed as inhibition of cell growth incubated for 24 hrs by MTT assay; format: toxicity, cell-based
Aspergillus fumigatus [12] = experiment: Antifungal activity against Aspergillus fumigatus ATCC 46645 assessed as decrease in conidia formation at IC50 concentration by UV-vis spectrophotometric analysis; format: functional, organism-based
Aspergillus fumigatus [13] = experiment: Antibiofilm activity against Aspergillus fumigatus ATCC 46645 at 243.60 to 304.5 uM incubated for 24 hrs by MTT assay; format: functional, organism-based; conditions: dose 243.6-304.5 µM
Aspergillus fumigatus [14] = experiment: Antibiofilm activity against Aspergillus fumigatus ATCC 46645 assessed as absence of ECM on hyphae at 243.60 to 304.5 uM; format: functional, organism-based; conditions: dose 243.6-304.5 µM
[15] = Cytotoxicity against human L132 cells assessed as inhibition of cell growth; format: toxicity, cell-based

`C=CCc1ccc(OCc2cn([C@@H]3O[C@H](COC(C)=O)[C@H](OC(C)=O)[C@H](OC(C)=O)[C@H]3OC(C)=O)nn2)c(OC)c1` gave an MIC (Aspergillus fumigatus [1]) of over 20 µM and an IC50 (Aspergillus fumigatus [2]) of 10.9 µM.
In the case of `C=CCc1ccc(O)c(OC)c1` [EUGENOL], the MIC (Aspergillus fumigatus [1]) is reported as 3800 µM (≈ 624 µg/mL) and the IC50 (Aspergillus fumigatus [2]) is reported as 1900 µM.
With `CCCc1ccc(OCc2cn([C@@H]3O[C@H](COC(C)=O)[C@@H](OC(C)=O)[C@H](OC(C)=O)[C@H]3OC(C)=O)nn2)c(OC)c1` the MIC (Aspergillus fumigatus [1]) was over 20 µM and the IC50 (Aspergillus fumigatus [2]) was over 25 µM.
`C/C=C/c1ccc(OCc2cn(C3O[C@@H](C)[C@H](OC(C)=O)[C@@H](OC(C)=O)[C@H]3OC(C)=O)nn2)c(OC)c1` (some centres not stated) gave an MIC (Aspergillus fumigatus [1]) of over 20 µM and an IC50 (Aspergillus fumigatus [2]) of 12.1 µM.
`C=CCc1ccc(OCc2cn([C@@H]3O[C@H](COC(C)=O)[C@@H](O[C@@H]4O[C@H](COC(C)=O)[C@H](OC(C)=O)[C@H](OC(C)=O)[C@H]4OC(C)=O)[C@H](OC(C)=O)[C@H]3OC(C)=O)nn2)c(OC)c1` showed an MIC (Aspergillus fumigatus [1]) of over 20 µM and an IC50 (Aspergillus fumigatus [2]) of 14.5 µM.
`CCCc1ccc(OCc2cn(C[C@@H](O)Cc3ccc(O[Si](C)(C)C(C)(C)C)c(OC)c3)nn2)c(OC)c1` showed an MIC (Aspergillus fumigatus [1]) of over 20 µM and an IC50 (Aspergillus fumigatus [2]) of over 25 µM.
With `C/C=C/c1ccc(OCc2cn([C@@H]3O[C@H](COC(C)=O)[C@@H](OC(C)=O)[C@H](OC(C)=O)[C@H]3OC(C)=O)nn2)c(OC)c1` the MIC (Aspergillus fumigatus [1]) was over 20 µM and the IC50 (Aspergillus fumigatus [2]) was 21.7 µM.
For `COc1cc(C[C@H](O)CO)ccc1O[Si](C)(C)C(C)(C)C`, the MIC (Aspergillus fumigatus [1]) was over 20 µM and the IC50 (Aspergillus fumigatus [2]) was over 25 µM.
In the case of `C/C=C/c1ccc(OCc2cn([C@@H]3O[C@H](COC(C)=O)[C@H](OC(C)=O)[C@H](OC(C)=O)[C@H]3OC(C)=O)nn2)c(OC)c1`, the MIC (Aspergillus fumigatus [1]) is reported as over 20 µM and the IC50 (Aspergillus fumigatus [2]) is reported as 10.9 µM.
Work on `C#CCOc1ccc(CCC)cc1OC` yielded an MIC (Aspergillus fumigatus [1]) of over 20 µM and an IC50 (Aspergillus fumigatus [2]) of over 25 µM.
For `C=CCc1ccc(OCc2cn([C@@H]3O[C@H](COC(C)=O)[C@@H](O[C@H]4O[C@H](COC(C)=O)[C@@H](OC(C)=O)[C@H](OC(C)=O)[C@H]4OC(C)=O)[C@H](OC(C)=O)[C@H]3OC(C)=O)nn2)c(OC)c1`, the MIC (Aspergillus fumigatus [1]) was over 20 µM and the IC50 (Aspergillus fumigatus [2]) was 14.5 µM.
With `C/C=C/c1ccc(O)c(OC)c1` the Activity (Aspergillus fumigatus [3]) was “Active”, the Activity (Aspergillus fumigatus [4]) was “Active” and the Activity (Aspergillus fumigatus [5]) was “Active”. The Activity (Cell membrane) was “Active”, the MIC (Aspergillus fumigatus [1]) was 3800 µM (≈ 624 µg/mL) and the Activity (Aspergillus fumigatus [6]) was 0.399. The IC50 (Aspergillus fumigatus [2]) was 1900 µM.
For `C#CCOc1ccc(/C=C/C)cc1OC`, the MIC (Aspergillus fumigatus [1]) was over 20 µM and the IC50 (Aspergillus fumigatus [2]) was over 25 µM.
Work on `C#CCOc1ccc(CC=C)cc1OC` yielded an MIC (Aspergillus fumigatus [1]) of over 20 µM and an IC50 (Aspergillus fumigatus [2]) of over 25 µM.
Compound `C=CCc1ccc(OCc2cn([C@@H]3O[C@H](CO)[C@@H](O)[C@H](O)[C@H]3O)nn2)c(OC)c1` has an MIC (Aspergillus fumigatus [1]) of over 20 µM and an IC50 (Aspergillus fumigatus [2]) of over 25 µM.
For `C=CCc1ccc(OCc2cn([C@@H]3O[C@H](COC(C)=O)[C@@H](OC(C)=O)[C@H](OC(C)=O)[C@H]3OC(C)=O)nn2)c(OC)c1`, the Activity (Aspergillus fumigatus [7]) was “Active”, the Activity (Aspergillus fumigatus [8]) was “Active” and the Activity (Aspergillus fumigatus [9]) was “Active”. For the same compound, the Activity (Aspergillus fumigatus [3]) was “Active”, the selectivity ratio [10] was 8.01 and the CC50 at 24 h [11] was 43.5 µM. For the same compound, the Activity (Aspergillus fumigatus [4]) was “Active”, the Activity (Aspergillus fumigatus [5]) was “Active” and the Activity (Aspergillus fumigatus [12]) was “Active”. The Activity (Cell membrane) was “Active”, the MIC (Aspergillus fumigatus [1]) was 10.9 µM (≈ 6.25 µg/mL) and the Activity (Aspergillus fumigatus [6]) was 0.295. It also gave an IC50 (Aspergillus fumigatus [2]) of 5.42 µM.
In the case of `C/C=C/c1ccc(OCc2cn([C@@H]3O[C@H](COC(C)=O)[C@@H](O[C@@H]4O[C@H](COC(C)=O)[C@H](OC(C)=O)[C@H](OC(C)=O)[C@H]4OC(C)=O)[C@H](OC(C)=O)[C@H]3OC(C)=O)nn2)c(OC)c1`, the MIC (Aspergillus fumigatus [1]) is reported as over 20 µM and the IC50 (Aspergillus fumigatus [2]) is reported as 14.5 µM.
`C=CCc1ccc(OCc2cn(C[C@@H](O)Cc3ccc(O[Si](C)(C)C(C)(C)C)c(OC)c3)nn2)c(OC)c1` showed an MIC (Aspergillus fumigatus [1]) of over 20 µM and an IC50 (Aspergillus fumigatus [2]) of over 25 µM.
With `CCCc1ccc(O)c(OC)c1` the Activity (Aspergillus fumigatus [7]) was “Active”, the Activity (Aspergillus fumigatus [3]) was “Active” and the selectivity ratio [10] was 16. For the same compound, the CC50 at 24 h [11] was 150 µM, the Activity (Aspergillus fumigatus [4]) was “Active” and the Activity (Aspergillus fumigatus [5]) was “Active”. The Activity (Aspergillus fumigatus [13]) was “Active”, the Activity (Aspergillus fumigatus [14]) was “Active” and the Activity (Aspergillus fumigatus [12]) was “Active”. For the same compound, the Activity (Cell membrane) was “Active”, the MIC (Aspergillus fumigatus [1]) was 15.5 µM (≈ 2.58 µg/mL) and the Activity (Aspergillus fumigatus [6]) was 0.176. The IC50 (Aspergillus fumigatus [2]) was 9.39 µM.
`C/C=C/c1ccc(OCc2cn([C@@H]3O[C@H](COC(C)=O)[C@@H](O[C@H]4O[C@H](COC(C)=O)[C@@H](OC(C)=O)[C@H](OC(C)=O)[C@H]4OC(C)=O)[C@H](OC(C)=O)[C@H]3OC(C)=O)nn2)c(OC)c1` showed an MIC (Aspergillus fumigatus [1]) of over 20 µM and an IC50 (Aspergillus fumigatus [2]) of 14.5 µM.
Work on `C[C@@H]1[C@H](O)[C@@H](C)/C=C/C=C/C=C/C=C/C=C/C=C/C=C/[C@H](O[C@@H]2O[C@H](C)[C@@H](O)[C@H](N)[C@@H]2O)C[C@@H]2O[C@](O)(C[C@@H](O)C[C@@H](O)[C@H](O)CC[C@@H](O)C[C@@H](O)CC(=O)O[C@H]1C)C[C@H](O)[C@H]2C(=O)O` [AMPHOTERICIN B] yielded a CC50 [15] of 5.4 µM, an MIC (Aspergillus fumigatus [1]) of 0.216 µM (≈ 0.2 µg/mL) and an Activity (Aspergillus fumigatus [6]) of 1.126. It also gave an IC50 (Aspergillus fumigatus [2]) of 1.08 µM.
Compound `C=CCc1ccc(O[Si](C)(C)C(C)(C)C)c(OC)c1` has an MIC (Aspergillus fumigatus [1]) of over 20 µM and an IC50 (Aspergillus fumigatus [2]) of over 25 µM.
With `C/C=C/c1ccc(OCc2cn(C[C@@H](O)Cc3ccc(O[Si](C)(C)C(C)(C)C)c(OC)c3)nn2)c(OC)c1` the MIC (Aspergillus fumigatus [1]) was over 20 µM and the IC50 (Aspergillus fumigatus [2]) was over 25 µM.
`C/C=C/c1ccc(OCc2cn([C@@H]3O[C@H](COC(=O)c4ccccc4)[C@H](OC(=O)c4ccccc4)[C@H](OC(=O)c4ccccc4)[C@H]3OC(=O)c3ccccc3)nn2)c(OC)c1` showed an MIC (Aspergillus fumigatus [1]) of over 20 µM and an IC50 (Aspergillus fumigatus [2]) of 15.2 µM.
With `CCC(C)n1ncn(-c2ccc(N3CCN(c4ccc(OCC5COC(Cn6cncn6)(c6ccc(Cl)cc6Cl)O5)cc4)CC3)cc2)c1=O` (configuration not stated) [ITRACONAZOLE] the MIC (Aspergillus fumigatus [1]) was 0.552 µM (≈ 0.39 µg/mL).
`COc1cc(C[C@H](O)CN=[N+]=[N-])ccc1O[Si](C)(C)C(C)(C)C` gave an MIC (Aspergillus fumigatus [1]) of over 20 µM and an IC50 (Aspergillus fumigatus [2]) of over 25 µM.
Compound `CCCc1ccc(OCc2cn([C@@H]3O[C@H](CO)[C@H](O)[C@H](O)[C@@H]3O)nn2)c(OC)c1` has an MIC (Aspergillus fumigatus [1]) of over 20 µM and an IC50 (Aspergillus fumigatus [2]) of over 25 µM.
